Results published in patent US20260217698A1 (BEYANG THERAPEUTICS CO., LTD., priority 2022, published 2026).
pIC50: −log10 of the molar value. ≈ marks a conversion by molar mass, not a printed value.

What was measured:
EGFR = target: T1, EGFR (Homo sapiens, UniProt P00533); experiment: Kinase inhibition, Mobility Shift Assay/IMAP, EGFR; format: biochemical
T1 construct: purchased Carna 08-115
Method in brief: (§1)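 Substrate conversion (phosphorylated vs non-phosphorylated) read by mobility shift on Caliper EZ Reader II and converted to % inhibition relative to no-enzyme and DMSO controls. IC50 fitted from % inhibition versus log compound concentration.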

melanin = experiment: Binding capacity of compounds to melanin; format: in vitro ADME, cuttlefish (Sepia officinalis); details: cuttlefish (Sepia officinalis), melanin suspension (1 mg/mL); 1 mg/mL melanin in PBS pH 7.4, 2 μM compound, 2 h at 37° C.; read-out: Fu % (percentage of free drug)
Method in brief: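 Compound (2 μM final) incubated with washed Sepia melanin (1 mg/mL, PBS pH 7.4) 2 h at 37° C with shaking; PBS with 0.1% BSA served as blank. Supernatants quantified by LC-MS/MS; bound fraction Fb derived from melanin versus blank concentration.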

VEGFR2 [1] = target: T2, VEGFR2 (Homo sapiens, UniProt P35968); experiment: Kinase inhibition, Mobility Shift Assay/IMAP, VEGFR2; format: biochemical; set-up: purchased Carna 08-191
Method in brief: as §1
Target sequence in this assay (P35968 790-1356 limits assumed): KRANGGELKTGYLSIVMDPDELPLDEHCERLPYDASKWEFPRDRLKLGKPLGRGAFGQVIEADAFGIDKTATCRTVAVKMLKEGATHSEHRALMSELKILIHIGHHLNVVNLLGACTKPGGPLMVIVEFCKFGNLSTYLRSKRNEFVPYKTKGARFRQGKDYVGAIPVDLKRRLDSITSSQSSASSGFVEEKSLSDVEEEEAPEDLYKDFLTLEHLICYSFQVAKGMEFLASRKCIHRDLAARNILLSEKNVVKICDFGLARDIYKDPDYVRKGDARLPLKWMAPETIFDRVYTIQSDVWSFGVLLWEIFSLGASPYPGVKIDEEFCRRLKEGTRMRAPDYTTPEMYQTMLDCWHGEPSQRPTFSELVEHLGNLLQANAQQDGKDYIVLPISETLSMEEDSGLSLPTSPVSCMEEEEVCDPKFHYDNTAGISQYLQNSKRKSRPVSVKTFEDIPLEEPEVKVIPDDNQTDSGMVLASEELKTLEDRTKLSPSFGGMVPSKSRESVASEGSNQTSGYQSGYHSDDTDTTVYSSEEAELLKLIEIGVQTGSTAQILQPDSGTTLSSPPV

VEGFR2 [2] = target: T2, VEGFR2; experiment: Inhibition of VEGF-induced VEGFR2 autophosphorylation (pVEGFR2) in HUVEC cells, ELISA; format: cell-based; set-up: endogenous in cells; host or cells: HUVEC; details: 50 ng/mL human VEGF, compound 1 h
From the text: Vascular endothelial growth factor receptor 2 (VEGFR2) is a primary receptor for VEGF-induced endothelial cell signaling. After ligand binding, VEGFR2 is autophosphorylated and activated. The main function of signaling from VEGFR2 is to induce vascularization during development and after tissue injury, and to bypass blocked blood vessels. Pathologically, VEGF and VEGFR2 are involved in tumor angiogenesis and vascular leakage. They are considered to be main participants in many different cancers and ocular diseases that accompany pathological neovascularization. This assay measured the ability of the compounds to inhibit VEGF-induced VEGFR2 autophosphorylation (pVEGFR2) in HUVEC cells by using ELISA.
Culture cells in a cell culture flask to reach a fusion degree of 60%-80% before cell inoculation. Dilute the cell suspension to […] with a pre-warmed complete medium. Add 80 μL of the cell suspension to all wells of a 96-well cell plate (Corning-3599); and incubate the plate overnight at 37° C. in the presence of 5% CO2. Dissolve the compound powder to 10 mM with DMSO and store it in a nitrogen cabinet. Compound dilution plate: Add a reference compound Ponatinib or a compound to be tested to a 96 V-well plate (Axygen-WIPP 2280) at concentrations achieved as follows: performing 3-fold gradient dilution starting from 5 mM (5 μL of 10 mM compound solution plus 5 μL of DMSO) for a total of 8 concentration points. […] Transfer 20 μL of the diluted compound from the intermediate plate to a cell plate. Then, incubate the cell plate for 1 h at 37° C. in the presence of 5% CO2. After the compound was treated for 1 h, add 25 μL of 250 ng/ml human VEGF at a final concentration of 50 ng/mL to a 96-well plate; and incubate the plate for 5 min at 37° C. in the presence of 5% CO2, centrifuge the plate for 10 min at 3,000 rpm, remove the medium and wash the cells once with 300 μL of pre-chilled DPBS per well. Then, centrifuge the plate for 10 min at 4,000 rpm, remove DPBS, and add 110 μL of pre-chilled 1× cell lysis buffer per well to the 96-well plate. Shake the plate for 40 min at 4° C. Then, freeze the plate in a refrigerator at −80° C. On the next day, remove the plate from the refrigerator at −80° C., thaw the plate, centrifuge the plate for 10 min at 3500 rpm, and add 100 μL of the supernatant per well to an ELISA plate. Seal the plate and incubate it for 2 h at 37° C. Wash the wells 4 times with 1× wash buffer. Add 100 μL of recombinant detection antibody per well. Seal the plate, incubate the plate for 1 h at 37° C., and repeat the step of plate washing. Add 100 μL of secondary antibody per well. Seal the plate, incubate the plate for 30 min at 37° C., and repeat the step of plate washing. Add 100 μL of TMB (protected from light) per well. Seal the plate, incubate the plate for 30 min at 37° C., and add 100 μL of the stop solution per well. Gently shake for 30 sec, measure the absorbance with a SpectraMax® 340 PC 384 Absorbance Microplate Reader within 30 min, and read an optical density value at 450 nm. Conduct data analysis using XL Fit software:
Conduct curve fitting using the 4 Parameter Logistic Model or Sigmoidal Dose-Response Model to obtain IC50 values.
X indicates the log value of compound concentration, Y indicates the inhibition rate (% inhibition), Top indicates the readout of the negative control wells, and Bottom indicates the readout of the positive control well.
Target sequence in this assay (P35968 20-1356): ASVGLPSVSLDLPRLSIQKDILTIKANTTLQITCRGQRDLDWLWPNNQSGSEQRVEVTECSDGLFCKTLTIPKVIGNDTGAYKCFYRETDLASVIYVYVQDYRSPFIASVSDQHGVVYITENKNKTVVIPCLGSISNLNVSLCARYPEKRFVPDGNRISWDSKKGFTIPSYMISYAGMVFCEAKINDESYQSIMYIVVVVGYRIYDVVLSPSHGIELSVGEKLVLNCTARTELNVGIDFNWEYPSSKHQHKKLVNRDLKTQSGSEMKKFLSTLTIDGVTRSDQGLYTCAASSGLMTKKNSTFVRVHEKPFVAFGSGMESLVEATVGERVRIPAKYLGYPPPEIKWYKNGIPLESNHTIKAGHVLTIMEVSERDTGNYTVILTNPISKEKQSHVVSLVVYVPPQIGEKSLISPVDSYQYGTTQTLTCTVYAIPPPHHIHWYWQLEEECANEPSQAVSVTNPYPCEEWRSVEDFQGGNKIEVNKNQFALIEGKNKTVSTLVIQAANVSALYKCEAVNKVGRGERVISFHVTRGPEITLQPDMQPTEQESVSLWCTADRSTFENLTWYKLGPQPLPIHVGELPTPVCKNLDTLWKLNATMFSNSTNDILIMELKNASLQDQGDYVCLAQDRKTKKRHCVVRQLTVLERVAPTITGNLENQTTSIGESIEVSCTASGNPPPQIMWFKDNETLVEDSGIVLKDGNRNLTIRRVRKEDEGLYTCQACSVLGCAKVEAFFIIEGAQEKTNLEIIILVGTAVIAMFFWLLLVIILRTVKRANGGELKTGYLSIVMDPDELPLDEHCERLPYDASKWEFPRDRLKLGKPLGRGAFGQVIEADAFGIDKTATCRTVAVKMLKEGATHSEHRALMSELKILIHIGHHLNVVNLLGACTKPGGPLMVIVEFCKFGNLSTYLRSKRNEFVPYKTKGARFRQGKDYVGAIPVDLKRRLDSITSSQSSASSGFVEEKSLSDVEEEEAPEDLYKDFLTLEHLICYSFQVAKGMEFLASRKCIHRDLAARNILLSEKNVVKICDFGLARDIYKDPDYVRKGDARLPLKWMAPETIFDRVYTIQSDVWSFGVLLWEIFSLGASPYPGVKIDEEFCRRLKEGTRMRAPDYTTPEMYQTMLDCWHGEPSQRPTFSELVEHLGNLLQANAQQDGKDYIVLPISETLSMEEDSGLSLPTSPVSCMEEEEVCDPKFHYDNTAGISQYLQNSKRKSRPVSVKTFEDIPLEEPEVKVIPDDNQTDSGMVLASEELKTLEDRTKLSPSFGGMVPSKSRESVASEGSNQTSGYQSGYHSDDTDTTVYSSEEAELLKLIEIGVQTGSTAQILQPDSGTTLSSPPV

VEGFR3 = target: T3, VEGFR3 (Homo sapiens, UniProt P35916); experiment: Kinase inhibition, Mobility Shift Assay/IMAP, VEGFR3; format: biochemical
T3 construct: purchased Invitrogen PV4129
Method in brief: as §1

TIE2 = target: T4, TIE2 (Homo sapiens, UniProt Q02763); experiment: Kinase inhibition, Mobility Shift Assay/IMAP, TIE2; format: biochemical
T4 construct: purchased BPS 40270
Method in brief: as §1

HUVEC cells = experiment: Inhibition of VEGF-induced HUVEC cell proliferation, CellTiter Glo; format: cell-based; details: Homo sapiens, 20 ng/ml VEGF, 72 hours
From the text: In this experiment, human umbilical vein endothelial cells (HUVEC, Lonza) were used. HUVEC cells are primary cells isolated from umbilical veins. This cell line is a model system to study the functions of endothelial cells. Endothelial cell proliferation in response to VEGF is crucial to the pathological angiogenesis associated with conditions such as tumor development and ocular neovascular diseases.
In this assay, a luciferase bioluminescence assay (CellTiter GLU™, Promega) is used to determine the inhibitory activity of the compounds against VEGF-induced HUVEC cell proliferation and viability. CellTiter GLO™ is a homogeneous method for quantifying the count of viable cells in culture based on ATP, an indicator of metabolically active cells. In this assay, the compound was incubated with HUVEC cells for 72 hours, and then the inhibitory activity of the resulting compound against VEGF-induced HUVEC cell proliferation was measured on the En Vision plate reader.
With the RPMI-1640 medium (plus 5% FBS, 1% Penicillin-Streptomycin) used for the HUVEC cell proliferation experiment, add a cell suspension to a 96-well plate at 100 μl per well, i.e., 4000 HUVEC cells/well, and incubate them overnight in a 5% CO2 incubator at 37° C. (serum starvation). After 24 hours, add 96 μl of the experimental medium to the cell wells, and then add 2 μl of the compound to the cell wells; and after 1 hour following the addition of the compound, add 2 μl of 2 μg/ml VEGF to the cell wells. Add 0.1% DMSO and 20 ng/ml VEGF to cell wells to serve as high-reading control wells. Take cell-free wells with only medium as low-reading control wells. […] After 72 hours of incubation of the cell plate in the incubator, hold the cell plate to be tested at room temperature and discard 100 μl of medium per well. Add 100 μl of CTG reagent (CellTiter Glo kit) per well, oscillate the cell plate in a fast oscillator for 3 minutes, and keep the cell plate at room temperature in the dark for 30 minutes. Read the chemiluminescence signal value with the Envision instrument.
X indicates the log value of compound concentration, Y indicates the inhibition rate (% inhibition), Top indicates the readout of the high-reading control well.

VEGFR1 = target: T5, VEGFR1 (Homo sapiens, UniProt P17948); experiment: Kinase inhibition, Mobility Shift Assay/IMAP, VEGFR1; format: biochemical
T5 construct: purchased Invitrogen PR6731B
Method in brief: as §1

[3] = Solubility test in buffer, LC-MS; format: physicochemical; details: aqueous buffer, thermodynamic from solid, room temperature, shaking 8 h, pH not given (method: pH 2.0, 6.5, 7.4)
Protocol: Accurately weigh 3 portions of about 2 mg of the compound, and add appropriate volumes of buffers with the pHs of 2.0, 6.5, and 7.4 respectively to obtain a solution with a concentration of 2 mg/mL. After sonication for 10 min, fix them on a shaker and shaking for 8 h at room temperature. After shaking, sonicate for 10 min and centrifuge for 15 min at 13,000 rpm. Pipette 0.1 mL of supernatant into a new tube, shake and rinse it with 5 mL, and discard the liquid. Transfer 0.5 mL of the supernatant again to a new tube, centrifuge it for 15 min at 13,000 rpm, then collect the supernatant (if necessary, dilute with water) and analyze it by LC-MS. The sample concentrations at 3~5 points are subjected to fitting and reticle for quantification.

T1 sequence (P00533 669-1210 limits assumed): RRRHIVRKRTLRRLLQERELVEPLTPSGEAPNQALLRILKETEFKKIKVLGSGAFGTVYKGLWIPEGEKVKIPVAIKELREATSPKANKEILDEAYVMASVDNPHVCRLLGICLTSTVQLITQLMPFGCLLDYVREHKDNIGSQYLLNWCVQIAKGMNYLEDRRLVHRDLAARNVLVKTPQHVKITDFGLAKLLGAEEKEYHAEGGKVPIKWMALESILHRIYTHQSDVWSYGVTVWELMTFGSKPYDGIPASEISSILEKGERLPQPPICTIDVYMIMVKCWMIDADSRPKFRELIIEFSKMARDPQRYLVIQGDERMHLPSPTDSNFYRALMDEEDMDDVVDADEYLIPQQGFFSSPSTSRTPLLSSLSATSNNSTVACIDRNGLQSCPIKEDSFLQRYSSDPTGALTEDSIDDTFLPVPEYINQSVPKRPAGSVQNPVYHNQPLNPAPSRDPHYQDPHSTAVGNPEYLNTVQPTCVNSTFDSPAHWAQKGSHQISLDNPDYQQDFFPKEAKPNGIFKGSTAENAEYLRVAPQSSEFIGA
T3 sequence (P35916 25-1363): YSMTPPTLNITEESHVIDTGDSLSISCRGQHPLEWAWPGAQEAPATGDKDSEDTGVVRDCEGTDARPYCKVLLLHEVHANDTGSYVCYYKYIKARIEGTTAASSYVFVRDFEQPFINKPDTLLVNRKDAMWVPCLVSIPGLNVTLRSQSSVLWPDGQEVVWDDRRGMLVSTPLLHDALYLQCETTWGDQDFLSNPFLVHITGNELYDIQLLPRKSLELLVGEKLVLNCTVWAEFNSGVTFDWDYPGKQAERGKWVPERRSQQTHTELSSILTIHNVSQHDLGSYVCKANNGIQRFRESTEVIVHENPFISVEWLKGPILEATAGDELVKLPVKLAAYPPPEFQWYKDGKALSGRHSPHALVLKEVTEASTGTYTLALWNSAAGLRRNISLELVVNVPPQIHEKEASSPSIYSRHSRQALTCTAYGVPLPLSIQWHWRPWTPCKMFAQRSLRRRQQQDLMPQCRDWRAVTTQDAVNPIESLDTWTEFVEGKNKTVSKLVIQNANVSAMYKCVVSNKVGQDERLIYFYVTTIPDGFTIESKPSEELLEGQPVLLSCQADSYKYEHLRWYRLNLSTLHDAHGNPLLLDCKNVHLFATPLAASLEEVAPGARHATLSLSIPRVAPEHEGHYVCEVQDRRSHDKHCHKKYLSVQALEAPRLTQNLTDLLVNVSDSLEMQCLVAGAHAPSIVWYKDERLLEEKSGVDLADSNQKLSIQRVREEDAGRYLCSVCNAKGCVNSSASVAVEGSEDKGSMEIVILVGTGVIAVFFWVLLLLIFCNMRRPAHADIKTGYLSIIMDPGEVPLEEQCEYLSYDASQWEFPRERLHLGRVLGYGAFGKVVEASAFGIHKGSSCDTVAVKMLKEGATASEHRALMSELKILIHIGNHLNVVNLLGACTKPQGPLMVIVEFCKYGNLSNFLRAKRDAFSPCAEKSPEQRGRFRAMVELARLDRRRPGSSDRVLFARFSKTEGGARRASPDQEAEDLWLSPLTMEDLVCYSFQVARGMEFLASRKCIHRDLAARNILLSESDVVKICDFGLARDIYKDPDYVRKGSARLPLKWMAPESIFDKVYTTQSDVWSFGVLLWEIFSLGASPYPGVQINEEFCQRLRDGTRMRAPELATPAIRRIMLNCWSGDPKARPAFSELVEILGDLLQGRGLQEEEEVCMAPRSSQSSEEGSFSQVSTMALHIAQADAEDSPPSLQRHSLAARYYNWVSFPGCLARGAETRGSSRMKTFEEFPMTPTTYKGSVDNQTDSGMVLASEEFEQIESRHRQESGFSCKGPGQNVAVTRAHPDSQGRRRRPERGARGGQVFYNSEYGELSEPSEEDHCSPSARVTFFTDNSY
T4 sequence (Q02763 23-1124): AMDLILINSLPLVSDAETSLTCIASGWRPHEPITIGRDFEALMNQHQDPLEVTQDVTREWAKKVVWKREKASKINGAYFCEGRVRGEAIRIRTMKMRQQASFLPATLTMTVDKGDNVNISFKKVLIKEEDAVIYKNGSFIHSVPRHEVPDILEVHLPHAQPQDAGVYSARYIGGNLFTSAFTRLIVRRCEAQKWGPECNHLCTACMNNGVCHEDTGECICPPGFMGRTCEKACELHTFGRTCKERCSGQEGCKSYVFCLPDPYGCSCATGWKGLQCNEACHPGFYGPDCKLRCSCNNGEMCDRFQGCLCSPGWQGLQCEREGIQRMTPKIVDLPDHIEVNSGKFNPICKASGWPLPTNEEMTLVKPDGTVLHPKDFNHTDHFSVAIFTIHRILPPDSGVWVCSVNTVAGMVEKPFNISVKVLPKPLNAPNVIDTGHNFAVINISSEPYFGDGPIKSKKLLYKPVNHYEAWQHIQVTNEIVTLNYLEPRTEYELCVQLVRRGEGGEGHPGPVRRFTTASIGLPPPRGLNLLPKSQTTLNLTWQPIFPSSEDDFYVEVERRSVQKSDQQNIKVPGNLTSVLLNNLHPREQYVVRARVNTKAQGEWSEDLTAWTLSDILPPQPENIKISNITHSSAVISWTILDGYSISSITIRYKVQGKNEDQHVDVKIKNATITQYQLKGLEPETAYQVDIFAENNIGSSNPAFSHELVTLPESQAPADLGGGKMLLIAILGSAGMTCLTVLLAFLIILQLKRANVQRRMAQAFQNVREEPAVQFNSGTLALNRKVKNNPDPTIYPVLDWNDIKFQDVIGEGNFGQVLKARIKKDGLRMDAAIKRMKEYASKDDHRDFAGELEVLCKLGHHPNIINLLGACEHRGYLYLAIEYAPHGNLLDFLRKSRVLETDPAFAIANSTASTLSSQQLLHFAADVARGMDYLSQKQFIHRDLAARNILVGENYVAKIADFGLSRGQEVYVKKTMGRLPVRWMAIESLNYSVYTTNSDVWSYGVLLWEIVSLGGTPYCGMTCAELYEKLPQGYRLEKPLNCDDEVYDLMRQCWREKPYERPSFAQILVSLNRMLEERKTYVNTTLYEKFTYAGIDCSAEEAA

Compound	pIC50 (EGFR)	fraction unbound at 2 h, 2 μM (melanin)	pIC50 (VEGFR2 [1])	pIC50 (VEGFR2 [2])	pIC50 (VEGFR3)	pIC50 (TIE2)	pIC50 (HUVEC cells)	pIC50 (VEGFR1)	solubility at 8 h [3]
NC(=O)c1c(OCc2c(F)cc3c(c2F)OCC3)nsc1NC(=O)NCCCCN1CCCC1 [Compound T129, 3-[(5,7-difluoro-2,3-dihydrobenzofuran-6-yl)methoxy]-5-(4-pyrrolidin-1-ylbutylcarbamoylamino)isothiazole-4-carboxamide]	4.81	0.0889	7.92	7.15	–	–	–	–	–
CN1CCC(CCNC(=O)Nc2snc(OCc3ccc4c(c3)OCC4)c2C(N)=O)CC1 [Compound T053, 3-((2,3-dihydrobenzofuran-6-yl)methoxy)-5-(3-(2-(1-methylpiperidin-4-yl)ethyl)ureido)isothiazole-4-carboxamide]	4.94	0.0225	7.98	–	7.76	6.59	7.16	7.83	–
NC(=O)c1c(OCc2c(F)cc3c(c2F)OCC3)nsc1NC(=O)NCCCCN1CC[C@H](O)C1 [Compound T134, 3-[(5,7-difluoro-2,3-dihydrobenzofuran-6-yl)methoxy]-5-[4-[(3S)-3-hydroxypyrrolidin-1-yl]butylcarbamoylamino]isothiazole-4-carboxamide]	4.69	0.0401	8.18	7.80	–	–	–	–	–
NC(=O)c1c(OCc2cc(C(=O)NC3CC3)ccc2F)nsc1NC(=O)NCCCN1CCCC1 [Compound T098, 3-((5-(cyclopropylcarbamoyl)-2-fluorobenzyl)oxy)-5-(3-(3-(pyrrolidin-1-yl)propyl)ureido)isothiazole-4-carboxamide]	4.78	0.0666	8.81	6.88	–	5.31	–	–	–
NC(=O)c1c(OCc2cc(C(=O)NC3CC3)c(F)cc2F)nsc1NC(=O)NCCCCN1CCCC1 [Compound T128, 3-[[5-(cyclopropylcarbamoyl)-2,4-difluoro-phenyl]methoxy]-5-(4-pyrrolidin-1-ylbutylcarbamoylamino)isothiazole-4-carboxamide]	–	–	8.92	8.31	–	5.93	–	–	–
NC(=O)c1c(OCc2cc3c(cc2F)CCO3)nsc1NC(=O)NCCCCN1CCCC1 [Compound T071, 3-((5-fluoro-2,3-dihydrobenzofuran-6-yl)methoxy)-5-(3-(4-(pyrrolidin-1-yl)butyl)ureido)isothiazole-4-carboxamide]	4.82	0.0231	8.36	–	7.73	6.83	7.13	7.87	–
COc1cc(OC)c(F)c(COc2nsc(NC(=O)NCCC3CCN(C)CC3)c2C(N)=O)c1F [Compound T145, 3-[(2,6-difluoro-3,5-dimethoxy-phenyl)methoxy]-5-[2-(1-methyl-4-piperidyl)ethylcarbamoylamino]isothiazole-4-carboxamide]	< 4.22	0.0437	8.86	8.66	–	–	–	–	–
COc1cc(COc2nsc(NC(=O)NCCCCN3CC[C@@H](F)C3)c2C(N)=O)cc(OC)c1 [Compound T064, (R)-3-((3,5-dimethoxybenzyl)oxy)-5-(3-(4-(3-fluoropyrrolidin-1-yl)butyl)ureido)isothiazole-4-carboxamide]	< 4.22	0.0269	7.36	–	–	–	7.10	–	400 µg/mL (≈ 807 µM)
NC(=O)c1c(OCc2cc3c(cc2F)CCO3)nsc1NC(=O)NCCCCN1CC[C@@H](F)C1 [Compound T079, 3-[(5-fluoro-2,3-dihydrobenzofuran-6-yl)methoxy]-5-[4-[(3R)-3-fluoropyrrolidin-1-yl]butylcarbamoylamino]isothiazole-4-carboxamide]	5.29	0.0526	8.35	–	7.67	6.94	7.24	7.93	–
NC(=O)c1c(OCc2cc(C(=O)NC3CC3)ccc2F)nsc1NC(=O)NCCCN1CC[C@@H](F)C1 [Compound T122, 3-[[5-(cyclopropylcarbamoyl)-2-fluoro-phenyl]methoxy]-5-[3-[(3R)-3-fluoropyrrolidin-1-yl]propylcarbamoylamino]isothiazole-4-carboxamide]	5.25	0.0372	8.59	–	–	5.68	7.36	–	1280 µg/mL (≈ 2450 µM)
